Measurements from patent US10051861B2, “N-arylamidine-substituted trifluoroethyl sulfide derivatives as acaricides and insecticides” (BAYER CROPSCIENCE AG, priority 2011, dated 2018).

Each compound was assayed on greenhouse red spider mite (Tetranychus urticae) (assay: Tetranychus urticae spray test, OP-resistant (TETRUR), bean leaf disks). Conditions: Tetranychus urticae, foliar, 144 h, application rate 500 g/ha, after 6 days; read-out: efficacy (spider mites killed).
Format: in vivo
Method: After 6 days, the effect in % is determined.

`CN/C(=N/c1ccc(Cl)c(SCC(F)(F)F)c1)C(F)(F)F` [Ia-217] and `Cc1ccc(/N=C(/N(C)C)C(F)(F)F)cc1SCC(F)(F)F` [Ia-222] are the same in pest or weed control at 500 g/ha: 100% for the first, 100% for the second.

First: CN/C(=N/c1cc(SCC(F)(F)F)c(C)cc1F)c1ccc(Cl)s1 [Ia-218]
Second: CN/C(=N/c1cc(SCC(F)(F)F)c(C)cc1F)C(F)(F)F [Ia-226]
The pest or weed control at 500 g/ha of the first is lower: 90% for the first, 100% for the second.

`N#CC1(/C(N)=N/c2cc(SCC(F)(F)F)c(Cl)cc2Cl)CC1` [Ia-219] and `COC/C(N)=N/c1cc(SCC(F)(F)F)c(Cl)cc1Cl` [Ia-258] are the same in pest or weed control at 500 g/ha: 90% for the first, 90% for the second.

`Cc1ccc(/C(=N/c2cc(SCC(F)(F)F)c(C)cc2F)N2CCOCC2)cc1` [Ia-221] and `Cc1cc(F)c(/N=C(/c2ccccc2Cl)N2CCOCC2)cc1SCC(F)(F)F` [Ia-230] are the same in pest or weed control at 500 g/ha: 100% for the first, 100% for the second.

`Cc1cc(F)c(/N=C(/N)c2ccc([N+](=O)[O-])cc2)cc1SCC(F)(F)F` [Ia-223] and `COc1ccc(/C(N)=N\c2cc(SCC(F)(F)F)c(C)cc2F)cc1` [Ia-263] are the same in pest or weed control at 500 g/ha: 90% for the first, 90% for the second.

`CCN/C(=N\c1cc(SCC(F)(F)F)c(C)cc1C)c1cccnc1` [Ia-224] and `CN/C(=N\c1cc(SCC(F)(F)F)c(C)cc1C)c1ccncc1` [Ia-239] are the same in pest or weed control at 500 g/ha: 100% for the first, 100% for the second.

`Cc1cc(F)c(/N=C(\N)C(C)C)cc1SCC(F)(F)F` [Ia-225] and `CN/C(CC(F)(F)F)=N\c1cc(SCC(F)(F)F)c(C)cc1F` [Ia-233] are the same in pest or weed control at 500 g/ha: 100% for the first, 100% for the second.

First: CCN(C)/C(=N\c1cc(SCC(F)(F)F)c(C)cc1C)c1ccc(Cl)nc1 [Ia-227]
Second: CCN(C)/C(=N\c1cc(SCC(F)(F)F)c(C)cc1C)c1ccc(Cl)cc1 [Ia-231]
The pest or weed control at 500 g/ha of the first is higher: 100% for the first, 90% for the second.

`Cc1cc(C)c(SCC(F)(F)F)cc1/N=C(\NC1CC1)c1ccc(Cl)nc1` [Ia-232] and `CN(C)/C(=N\c1cc(SCC(F)(F)F)c(Cl)cc1Cl)c1ccc(Cl)nc1` [Ia-237] are the same in pest or weed control at 500 g/ha: 90% for the first, 90% for the second.

Compared with `Cc1cc(Cl)c(SCC(F)(F)F)cc1/N=C(\N)c1cnccn1` [Ia-234], `COc1cc(C)c(SCC(F)(F)F)cc1/N=C(\N)c1ccncn1` [Ia-260] is lower in pest or weed control at 500 g/ha: 100% for the first, 90% for the second.

`FC(F)(F)CSc1cc(/N=C(\NCCc2ncc(C(F)(F)F)cc2Cl)C2CC2)c(Cl)cc1Cl` [Ia-235] and `FC(F)(F)CN/C(=N\c1cc(SCC(F)(F)F)c(Cl)cc1Cl)C1CCC1` [Ia-259] are the same in pest or weed control at 500 g/ha: 90% for the first, 90% for the second.

Going from `COc1cc(C)c(SCC(F)(F)F)cc1/N=C(/N)C(F)(F)F` [Ia-236, 2,2,2-Trifluoro-N′-{2-methoxy-4-methyl-5-[(2,2,2-trifluoroethyl)sulfanyl]phenyl}ethanimidamide] to `COc1cc(C)c(SCC(F)(F)F)cc1/N=C(\N)C1(Cl)CC1` [Ia-255], the pest or weed control at 500 g/ha falls from 100% to 90%.

`Cc1cc(C)c(SCC(F)(F)F)cc1/N=C(/c1ccccc1)N(C)C` [Ia-240] and `COc1cc(C)c(SCC(F)(F)F)cc1/N=C(/c1ccc(Cl)cc1)N(C)C` [Ia-252] are the same in pest or weed control at 500 g/ha: 90% for the first, 90% for the second.

`Cc1cc(C)c(SCC(F)(F)F)cc1/N=C(\NCC(F)(F)F)C1CCCC1` [Ia-241] and `Cc1cc(C)c(SCC(F)(F)F)cc1/N=C(\NCC(F)F)C1CCCC1` [Ia-257] are the same in pest or weed control at 500 g/ha: 90% for the first, 90% for the second.

Compared with `Cc1cc(F)c(/N=C(\c2ccc(C(F)(F)F)cc2)N(C)C)cc1SCC(F)(F)F` [Ia-242], `Cc1cc(F)c(/N=C(\c2ccccc2C(F)(F)F)N(C)C)cc1SCC(F)(F)F` [Ia-245] is lower in pest or weed control at 500 g/ha: 100% for the first, 90% for the second.

`C#CCN/C(=N\c1cc(SCC(F)(F)F)c(Cl)cc1Cl)C1CC1` [Ia-244] and `FC(F)CN/C(=N\c1cc(SCC(F)(F)F)c(Cl)cc1Cl)C1CC1` [Ia-253] are the same in pest or weed control at 500 g/ha: 90% for the first, 90% for the second.

`Cc1cc(F)c(/N=C(\NC2CCS(=O)(=O)C2)C2CC2)cc1SCC(F)(F)F` (stereo not drawn) [Ia-247] and `C#CCN/C(=N\c1cc(SCC(F)(F)F)c(C)cc1F)C1CC1` [Ia-249] are the same in pest or weed control at 500 g/ha: 100% for the first, 100% for the second.

`CN/C(=N\c1cc(SCC(F)(F)F)c(Cl)cc1Cl)c1ccccn1` [Ia-248] and `N/C(=N\c1cc(SCC(F)(F)F)c(Cl)cc1Cl)C1CCCO1` (stereo not drawn) [Ia-262] are the same in pest or weed control at 500 g/ha: 90% for the first, 90% for the second.

`FC(F)(F)CN/C(=N\c1cc(SCC(F)(F)F)c(Cl)cc1Cl)C1CCCC1` [Ia-254] and `FC(F)CN/C(=N\c1cc(SCC(F)(F)F)c(Cl)cc1Cl)C1CCCC1` [Ia-256] are the same in pest or weed control at 500 g/ha: 90% for the first, 90% for the second.

`Cc1cc(F)c(/N=C(\NCC(F)(F)F)C2CCC2)cc1SCC(F)(F)F` [Ia-261] showed a pest or weed control at 500 g/ha of 90%.
